# Experiments:
# pigweed = experiment: Test B pre-/postemergence herbicide test; assay type: in vivo, Amaranthus retroflexus; details: for Pigweed plant response rating: postemergence, visual rating, scale 0 (no effect) to 100 (complete control)
# Outline: (§1)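 Pre: seeds sown, then sprayed. Post: 1–4-leaf plants (2–18 cm) sprayed at the same time. Paddy: flooded, treated at 2-leaf stage. Formulation: non-phytotoxic solvent with surfactant. Greenhouse 13–15 days; visual 0–100 score relative to controls.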
# barnyardgrass [1] = experiment: Test B pre-/postemergence herbicide test; assay type: in vivo, Echinochloa crus-galli; details: for Barnyardgrass plant response rating: postemergence, visual rating, scale 0 (no effect) to 100 (complete control)
# Outline: (§2)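 Visual rating, 0 (no effect) to 100 (complete control), versus untreated controls after 13–15 d in greenhouse. Pre- and postemergence applications (postemergence plants 2–18 cm, 1–4 leaves); flooded paddy arm at 2-leaf stage. Compounds in non-phytotoxic solvent plus surfactant.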
# cocklebur = experiment: Test B pre-/postemergence herbicide test; assay type: in vivo, Xanthium strumarium; details: for Cocklebur plant response rating: postemergence, visual rating, scale 0 (no effect) to 100 (complete control)
# Outline: as §2
# large crabgrass = experiment: Test B pre-/postemergence herbicide test; assay type: in vivo, Digitaria sanguinalis; details: for Crabgrass, Large plant response rating: postemergence, visual rating, scale 0 (no effect) to 100 (complete control)
# Outline: as §1
# barnyardgrass [2] = experiment: Test B flooded paddy test; assay type: in vivo, Echinochloa crus-galli; details: 1000 g ai/ha, visual rating, scale 0 to 100 (0 no effect, 100 complete control), 13 to 15 days
# Outline: (§3)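 Visual ratings, 0 (no effect) to 100 (complete control), made versus controls after 13–15 d greenhouse. Paddy plants treated at 2-leaf stage; postemergence plants at 1- to 4-leaf stage, 2–18 cm tall.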
# ducksalad [3] = experiment: Test C flooded paddy test; assay type: in vivo, Heteranthera limosa
# rice [4] = experiment: Test B pre-/postemergence herbicide test; assay type: in vivo, Oryza sativa; details: preemergence
# Outline: as §1
# blackgrass = experiment: Test B postemergence herbicide test; assay type: in vivo, Alopecurus myosuroides; details: postemergence, visual rating, scale 0 (no effect) to 100 (complete control)
# Outline: as §3
# wild oat = experiment: Test B postemergence herbicide test; assay type: in vivo, Avena fatua; details: postemergence, visual rating, scale 0 (no effect) to 100 (complete control)
# Outline: (§4)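 Plants grow to 1- to 4-leaf stage (2–18 cm) for postemergence spraying, or to 2-leaf stage for the paddy test. Formulated compound is applied. Greenhouse holding lasts 13–15 days. Response is scored visually relative to controls, 0 no effect to 100 complete control; a dash means no result.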
# [5] = tested on: small flower umbrella sedge; experiment: Test B flooded paddy test; assay type: in vivo, Cyperus difformis; details: 1000 g ai/ha, visual rating, scale 0 to 100 (0 no effect, 100 complete control), 13 to 15 days
# Outline: as §3
# ducksalad [6] = experiment: Test B flooded paddy test; assay type: in vivo, Heteranthera limosa; details: 1000 g ai/ha, visual rating, scale 0 to 100 (0 no effect, 100 complete control), 13 to 15 days
# Outline: as §3
# rice [7] = experiment: Test C flooded paddy test; assay type: in vivo, Oryza sativa
# Outline: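 Postemergence sprays applied to plants 2 to 18 cm tall (1- to 4-leaf stage); paddy species grown to 2-leaf stage under flooding. After 12 to 14 days in greenhouse, visual rating versus untreated controls on 0–100 scale (0 no effect, 100 complete control).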
# lambsquarters = experiment: Test B pre-/postemergence herbicide test; assay type: in vivo, Chenopodium album; details: for Lambsquarters plant response rating: postemergence, visual rating, scale 0 (no effect) to 100 (complete control)
# Outline: as §1
# giant foxtail = experiment: Test B pre-/postemergence herbicide test; assay type: in vivo, Setaria faberi; details: for Foxtail, Giant plant response rating: postemergence, visual rating, scale 0 (no effect) to 100 (complete control)
# Outline: as §1
# [8] = tested on: smallflower umbrella sedge; experiment: Test C flooded paddy test; assay type: in vivo, Cyperus difformis
# morningglory = experiment: Test B pre-/postemergence herbicide test; assay type: in vivo, Ipomoea coccinea; details: for Morningglory plant response rating: postemergence, visual rating, scale 0 (no effect) to 100 (complete control)
# Outline: as §2
# Surinam grass = experiment: Test B pre-/postemergence herbicide test; assay type: in vivo, Urochloa decumbens; details: for Surinam Grass plant response rating: postemergence, visual rating, scale 0 (no effect) to 100 (complete control)
# Outline: as §1
# corn = experiment: Test B pre-/postemergence herbicide test; assay type: in vivo, Zea mays; details: for Corn plant response rating: postemergence, visual rating, scale 0 (no effect) to 100 (complete control)
# Outline: as §1
# rice [9] = experiment: Test B flooded paddy test; assay type: in vivo, Oryza sativa; details: 1000 g ai/ha, visual rating, scale 0 to 100 (0 no effect, 100 complete control), 13 to 15 days
# Outline: as §4
# wheat = experiment: Test B postemergence herbicide test; assay type: in vivo, Triticum aestivum; design: key to Wheat plant response rating: 0 = no effect, 100 = complete control; details: postemergence, visual rating, scale 0 (no effect) to 100 (complete control)
# Outline: as §4
# barnyardgrass [10] = experiment: Test C flooded paddy test; assay type: in vivo, Echinochloa crus-galli
# Outline: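 Visual rating, 0 (no effect) to 100 (complete control), vs. controls at 12–14 d in greenhouse. Postemergence: 1–4-leaf plants, 2–18 cm. Paddy: flooded, barnyardgrass at 2-leaf stage.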
# velvetleaf = experiment: Test B pre-/postemergence herbicide test; assay type: in vivo, Abutilon theophrasti; details: for Velvetleaf plant response rating: postemergence, visual rating, scale 0 (no effect) to 100 (complete control)
# Outline: as §1
# [11] = 125 g ai/ha, 0 = no effect, 100 = complete control, preemergence
# [12] = 500 g ai/ha, visual rating 0-100, 0 no effect, 100 complete control, preemergence
# [13] = 62 g ai/ha, scale 0 to 100 (0 no effect, 100 complete control)
# [14] = 125 g ai/ha, scale 0 to 100 (0 no effect, 100 complete control)
# [15] = 250 g ai/ha, scale of 0 to 100, 0 is no effect, 100 is complete control
# [16] = 500 g ai/ha, visual rating after 12 to 14 days, scale 0 to 100 (0 no effect, 100 complete control)
compound,measurement,setting,value
CCNC(=O)c1cccc(NC(=O)c2cn(C(C)(C)C)nc2C)c1 [Compound 183],Pigweed plant response rating (0 to 100 scale),pigweed; [11],100
same,"Plant response rating, Pigweed",pigweed; [12],100
same,Pigweed plant response rating,pigweed; 125 g ai/ha,70
same,Pigweed plant response rating,pigweed; 500 g ai/ha,80
same,Barnyardgrass plant response rating (0 to 100 scale),barnyardgrass [1]; [11],20
same,"Plant response rating, Barnyardgrass",barnyardgrass [1]; [12],70
same,Barnyardgrass plant response rating,barnyardgrass [1]; 125 g ai/ha,0
same,Barnyardgrass plant response rating,barnyardgrass [1]; 500 g ai/ha,0
same,Cocklebur plant response rating (0 to 100 scale),cocklebur; [11],0
same,"Plant response rating, Cocklebur",cocklebur; [12],0
same,Cocklebur plant response rating,cocklebur; 125 g ai/ha,50
same,Cocklebur plant response rating,cocklebur; 500 g ai/ha,90
same,"Crabgrass, Large plant response rating (0 to 100 scale)",large crabgrass; [11],10
same,"Plant response rating, Crabgrass, Large",large crabgrass; [12],90
same,"Crabgrass, Large plant response rating",large crabgrass; 125 g ai/ha,20
same,"Crabgrass, Large plant response rating",large crabgrass; 500 g ai/ha,30
same,Barnyardgrass plant response rating,barnyardgrass [2],60
same,Ducksalad plant response rating,ducksalad [3]; [13],0
same,Ducksalad plant response rating,ducksalad [3]; [14],0
same,Ducksalad plant response rating,ducksalad [3]; [15],10
same,"Plant response rating, Ducksalad",ducksalad [3]; [16],20
same,Rice plant response rating (0 to 100 scale),"rice [4]; 125 g ai/ha, 0 = no effect, 100 = complete control",0
same,"Plant response rating, Rice","rice [4]; 500 g ai/ha, visual rating 0-100, 0 no effect, 100 complete control",80
same,Blackgrass plant response rating,blackgrass; 125 g ai/ha,0
same,Blackgrass plant response rating,blackgrass; 500 g ai/ha,10
same,"Oat, Wild plant response rating",wild oat; 125 g ai/ha,10
same,"Oat, Wild plant response rating",wild oat; 500 g ai/ha,20
same,"Sedge, Umbrella plant response rating",[5],80
same,Ducksalad plant response rating,ducksalad [6],70
same,Rice plant response rating,rice [7]; [13],0
same,Rice plant response rating,rice [7]; [14],0
same,Rice plant response rating,rice [7]; [15],0
same,"Plant response rating, Rice",rice [7]; [16],0
same,Lambsquarters plant response rating (0 to 100 scale),lambsquarters; [11],50
same,"Plant response rating, Lambsquarters",lambsquarters; [12],100
same,Lambsquarters plant response rating,lambsquarters; 125 g ai/ha,70
same,Lambsquarters plant response rating,lambsquarters; 500 g ai/ha,80
same,"Foxtail, Giant plant response rating (0 to 100 scale)",giant foxtail; [11],0
same,"Plant response rating, Foxtail, Giant",giant foxtail; [12],80
same,"Foxtail, Giant plant response rating",giant foxtail; 125 g ai/ha,20
same,"Foxtail, Giant plant response rating",giant foxtail; 500 g ai/ha,30
same,"Sedge, Umbrella plant response rating",[8]; [13],0
same,"Sedge, Umbrella plant response rating",[8]; [14],0
same,"Sedge, Umbrella plant response rating",[8]; [15],10
same,"Plant response rating, Sedge, Umbrella",[8]; [16],50
same,Morningglory plant response rating (0 to 100 scale),morningglory; [11],10
same,"Plant response rating, Morningglory",morningglory; [12],10
same,Morningglory plant response rating,morningglory; 125 g ai/ha,60
same,Morningglory plant response rating,morningglory; 500 g ai/ha,70
same,Surinam Grass plant response rating (0 to 100 scale),Surinam grass; [11],20
same,"Plant response rating, Surinam Grass",Surinam grass; [12],50
same,Surinam Grass plant response rating,Surinam grass; 125 g ai/ha,0
same,Surinam Grass plant response rating,Surinam grass; 500 g ai/ha,20
same,Corn plant response rating (0 to 100 scale),corn; [11],0
same,"Plant response rating, Corn",corn; [12],0
same,Corn plant response rating,corn; 125 g ai/ha,20
same,Corn plant response rating,corn; 500 g ai/ha,20
same,Rice plant response rating,rice [9],0
same,Wheat plant response rating,wheat; 125 g ai/ha,0
same,Wheat plant response rating,wheat; 500 g ai/ha,0
same,Barnyardgrass plant response rating,barnyardgrass [10]; [13],0
same,Barnyardgrass plant response rating,"barnyardgrass [10]; 125 g ai/ha, scale of 0 to 100, 0 is no effect, 100 is complete control",0
same,Barnyardgrass plant response rating,barnyardgrass [10]; [15],0
same,"Plant response rating, Barnyardgrass",barnyardgrass [10]; [16],0
same,Velvetleaf plant response rating (0 to 100 scale),velvetleaf; [11],10
same,"Plant response rating, Velvetleaf",velvetleaf; [12],50
same,Velvetleaf plant response rating,velvetleaf; 125 g ai/ha,40
same,Velvetleaf plant response rating,velvetleaf; 500 g ai/ha,60

# — patent US20060069132A1, “Azolecarboxamide herbicides” (priority 2004, published 2006)
